Experimental data: patent US20240254140A1, “COMPOUNDS AND THEIR USE IN THE TREATMENT OF BACTERIAL INFECTION” (Hoffmann-La Roche Inc., priority 2021, published 2024)
Values after ≈ are worked out from the molar mass of the structure shown.

test system: Escherichia coli ATCC 25922; experiment: Minimal Inhibitory Concentration (MIC) determination, broth microdilution; format: cell-based; conditions: ATCC25922; strain Escherichia coli ATCC 25922; broth microdilution per CLSI M07-A10; 18-24 hours at 35±2° C.; lowest concentration for complete growth inhibition
Protocol: Minimal Inhibitory Concentration (MIC) Determination:
The MIC of antibacterial compounds against multiple species and strains was determined using the broth microdilution method according to M07-A10 Clinical and Laboratory Standards Institute (CLSI) guidelines, using the appropriate broth medium. In short, the compound plates were prepared by dispensing 100 μL of each stock solution in the first well of a 96 well microtiter plate (MTP) at a concentration 100-fold higher than the final concentration desired in broth. Eleven serial 2-fold dilutions of the highest concentration were made in DMSO for new compounds and in water (or appropriate solution) for reference compounds [2]. 1 μL of each well was transferred in a new MTP, which served as the test plate by subsequent inoculation. This bacterial suspension was prepared from strains that were first sub-cultured on agar plates and incubated for 18-24 hours as appropriate. Following incubation, the inoculum was prepared from isolated colonies and adjusted to 0.5 McFarland turbidity standard (1 to 2×10^8 Colony Forming Units (CFU)/mL) in 0.9% saline. The bacterial suspension was then diluted 1:200 in appropriate sterile medium and within 15 minutes 100 μL/well were dispensed. Negative controls (lack of bacterial cells) and growth control wells (lack of compound) were included in all plates. MTPs were incubated for 18-24 hours at 35±2° C. in ambient air. The MIC value of each compound, expressed as μg/mL, was determined as the lowest concentration required for complete growth inhibition (no visible growth). • [1] CLSI (2015) Methods for dilution antimicrobial susceptibility tests for bacteria that grow aerobically; Approved Standard, Tenth Edition. CLSI Document M7-A10 (ISBN 1-56238-987-4). Wayne, PA: Clinical and Laboratory Standards Institute, 19087, USA. • [2] CLSI (2017) Performance Standards for Antimicrobial Susceptibility Testing; Twenty-Fifth Informational Supplement. CLSI Document M100-S27, CLSI, Wayne, Pennsylvania 19087, USA.
Table 1 provides the Minimal Inhibitory Concentrations (MIC) in micrograms per millilitre of the compounds of present invention obtained against the strain Escherichia coli ATCC 25922.

| Structure (SMILES) | MIC |
| --- | --- |
| O=C1COc2ncc(N3CC(CCNCC4Cc5cc(NC(=O)[C@@H]6C[C@H](O)CN6)cc(F)c5C4)OC3=O)nc2N1 (stereo partly drawn) [Example 46, (2S,4S)-N-[7-fluoro-2-[[2-[2-oxo-3-(3-oxo-4H-pyrazino[2,3-b][1,4]oxazin-6-yl)oxazolidin-5-yl]ethylamino]methyl]indan-5-yl]-4-hydroxy-pyrrolidine-2-carboxamide] | 0.5 µg/mL (≈ 0.9 µM) |
| C[C@H](C(=O)Nc1cc(F)c2c(c1)CC(CN1CCC3(CC1)CN(c1cnc4c(n1)NC(=O)CO4)C(=O)O3)C2)N(C)C (stereo partly drawn) [Example 7, (2R)-2-(dimethylamino)-N-[7-fluoro-2-[[2-oxo-3-(3-oxo-4H-pyrazino[2,3-b][1,4]oxazin-6-yl)-1-oxa-3,8-diazaspiro[4.5]decan-8-yl]methyl]indan-5-yl]propanamide] | 0.25 µg/mL (≈ 0.44 µM) |
| CC(C)(O)C(=O)Nc1cc(F)c2c(c1)CC(CNCCC1CN(c3cnc4c(n3)NC(=O)CO4)C(=O)O1)C2 (stereo not drawn) [Example 18, N-[7-fluoro-2-[[2-[2-oxo-3-(3-oxo-4H-pyrazino[2,3-b][1,4]oxazin-6-yl)oxazolidin-5-yl]ethylamino]methyl]indan-5-yl]-2-hydroxy-2-methyl-propanamide] | 0.25 µg/mL (≈ 0.473 µM) |
| CN(C)C(C)(C)C(=O)Nc1cc(F)c2c(c1)CC(CN1CCC3(CC1)CN(c1cnc4c(n1)NC(=O)CO4)C(=O)O3)C2 (stereo not drawn) [Example 6] | 0.25 µg/mL (≈ 0.43 µM) |
| CN(CC(=O)Nc1cc(F)c2c(c1)CC(CNCCC1CN(c3cnc4c(n3)NC(=O)CO4)C(=O)O1)C2)C1CC1 (stereo not drawn) [Example 13] | 1 µg/mL (≈ 1.81 µM) |
| CN(C)C1(C(=O)Nc2cc(F)c3c(c2)CC(CNCCC2CN(c4cnc5c(n4)NC(=O)CO5)C(=O)O2)C3)CC1 (stereo not drawn) [Example 2] | 1 µg/mL (≈ 1.81 µM) |
| O=C(O)C(F)(F)F.O=C1COc2ncc(N3CC4(CCN(CC5Cc6cc(NC(=O)[C@H]7NCC[C@@H]7O)cc(F)c6C5)CC4)OC3=O)nc2N1 (stereo partly drawn) [Example 54, (2S,3S)—N-[7-Fluoro-2-[[2-oxo-3-(3-oxo-4H-pyrazino[2,3-b][1,4]oxazin-6-yl)-1-oxa-3,8-diazaspiro[4.5]decan-8-yl]methyl]indan-5-yl]-3-hydroxy-pyrrolidine-2-carboxamide; 2,2,2-trifluoroacetic Acid] | 0.25 µg/mL |
| C[C@@]1(C(=O)Nc2cc(F)c3c(c2)CC(CN2CCC4(CC2)CN(c2cnc5c(n2)NC(=O)CO5)C(=O)O4)C3)C[C@@H](O)CN1 (single isomer, unassigned) [Example 72] | 0.5 µg/mL (≈ 0.839 µM) |
| C[C@H](C(=O)Nc1cc(C#N)c2c(c1)CC(O)(CNCCC1CN(c3cnc4c(n3)NC(=O)CO4)C(=O)O1)C2)N(C)C (stereo partly drawn) [Example 34, (2R)-N-[7-cyano-2-hydroxy-2-[[2-[2-oxo-3-(3-oxo-4H-pyrazino[2,3-b][1,4]oxazin-6-yl)oxazolidin-5-yl]ethylamino]methyl]indan-5-yl]-2-(dimethylamino)propanamide] | 4 µg/mL (≈ 7.08 µM) |
| O=C1COc2ncc(N3CC(CCNCC4Cc5cc(NC(=O)[C@@H]6CCCN6)cc(F)c5C4)OC3=O)nc2N1 (stereo partly drawn) [Example 36, (2S)—N-[7-Fluoro-2-[[2-[2-oxo-3-(3-oxo-4H-pyrazino[2,3-b][1,4]oxazin-6-yl)oxazolidin-5-yl]ethylamino]methyl]indan-5-yl]pyrrolidine-2-carboxamide] | 0.25 µg/mL (≈ 0.463 µM) |
| C[C@H](C(=O)Nc1cc(F)c2c(c1)CC(CNCC[C@H]1CN(c3cnc4c(n3)NC(=O)CO4)C(=O)O1)C2)N(C)C (single isomer, unassigned) [Example 68] | 0.125 µg/mL (≈ 0.231 µM) |
| N#Cc1cc(NC(=O)[C@@H]2C[C@@H](O)CN2)cc2c1CC(CNCCC1CN(c3cnc4c(n3)NC(=O)CO4)C(=O)O1)C2 (stereo partly drawn) [Example 61, (2S,4R)—N-[7-Cyano-2-[[2-[2-oxo-3-(3-oxo-4H-pyrazino[2,3-b][1,4]oxazin-6-yl)oxazolidin-5-yl]ethylamino]methyl]indan-5-yl]-4-hydroxy-pyrrolidine-2-carboxamide] | 0.5 µg/mL (≈ 0.889 µM) |
| C[C@H](C(=O)Nc1cc(F)c2c(c1)CC(CNCC[C@@H]1CN(c3cnc4c(n3)NC(=O)CO4)C(=O)O1)C2)N(C)C (stereo partly drawn) [Example 70, (2R)-2-(Dimethylamino)-N-[7-fluoro-2-[[2-[(5R)-2-oxo-3-(3-oxo-4H-pyrazino[2,3-b][1,4]oxazin-6-yl)oxazolidin-5-yl]ethylamino]methyl]indan-5-yl]propanamide] | 0.125 µg/mL (≈ 0.231 µM) |
| N#Cc1cc(NC(=O)[C@@H]2C[C@@H](O)CN2)cc2c1CC(CN1CCC3(CC1)CN(c1cnc4c(n1)NC(=O)CO4)C(=O)O3)C2 (stereo partly drawn) [Example 59, (2S,4R)—N-[7-cyano-2-[[2-oxo-3-(3-oxo-4H-pyrazino[2,3-b][1,4]oxazin-6-yl)-1-oxa-3,8-diazaspiro[4.5]decan-8-yl]methyl]indan-5-yl]-4-hydroxy-pyrrolidine-2-carboxamide] | ≤ 0.06 µg/mL |
| O=C(O)C(F)(F)F.O=C1COc2ncc(N3CC4(CCN(CC5Cc6cc(NC(=O)[C@]7(CO)CCCN7)cc(F)c6C5)CC4)OC3=O)nc2N1 (stereo partly drawn) [Example 53, (2R)—N-[7-Fluoro-2-[[2-oxo-3-(3-oxo-4H-pyrazino[2,3-b][1,4]oxazin-6-yl)-1-oxa-3,8-diazaspiro[4.5]decan-8-yl]methyl]indan-5-yl]-2-(hydroxymethyl)pyrrolidine-2-carboxamide; 2,2,2-trifluoroacetic Acid] | 0.25 µg/mL |
| N[C@@H](CC(=O)O)C(=O)Nc1cc(F)c2c(c1)CC(CNCCC1CN(c3cnc4c(n3)NC(=O)CO4)C(=O)O1)C2.O=C(O)C(F)(F)F (stereo partly drawn) [Example 48, (3S)-3-amino-4-[[7-fluoro-2-[[2-[2-oxo-3-(3-oxo-4H-pyrazino[2,3-b][1,4]oxazin-6-yl)oxazolidin-5-yl]ethylamino]methyl]indan-5-yl]amino]-4-oxo-butanoic acid; 2,2,2-trifluoroacetic acid] | 4 µg/mL |
| Cc1cc(NC(=O)[C@@H]2CCCN2C)nc2c1CC(CNCCC1CN(c3cnc4c(n3)NC(=O)CO4)C(=O)O1)C2 (stereo partly drawn) [Example 27, (2S)-1-methyl-N-[4-methyl-6-[[2-[2-oxo-3-(3-oxo-4H-pyrazino[2,3-b][1,4]oxazin-6-yl)oxazolidin-5-yl]ethylamino]methyl]-6,7-dihydro-5H-cyclopenta[b]pyridin-2-yl]pyrrolidine-2-carboxamide] | 1 µg/mL (≈ 1.82 µM) |
| O=C1COc2ncc(N3CC4(CCN(CC5Cc6cc(NC(=O)[C@@H]7C[C@@H](O)CN7)cnc6C5)CC4)OC3=O)nc2N1 (stereo partly drawn) [Example 60, (2S,4R)-4-Hydroxy-N-[6-[[2-oxo-3-(3-oxo-4H-pyrazino[2,3-b][1,4]oxazin-6-yl)-1-oxa-3,8-diazaspiro[4.5]decan-8-yl]methyl]-6,7-dihydro-5H-cyclopenta[b]pyridin-3-yl]pyrrolidine-2-carboxamide] | 0.5 µg/mL (≈ 0.886 µM) |
| CN1CCC[C@H]1C(=O)Nc1cc(F)c2c(c1)CC(CNCCC1CN(c3cnc4c(n3)NC(=O)CO4)C(=O)O1)C2 (stereo partly drawn) [Example 10, (2S)-N-[7-fluoro-2-[[2-[2-oxo-3-(3-oxo-4H-pyrazino[2,3-b][1,4]oxazin-6-yl)oxazolidin-5-yl]ethylamino]methyl]indan-5-yl]-1-methyl-pyrrolidine-2-carboxamide] | 0.125 µg/mL (≈ 0.226 µM) |
| C[C@H](C(=O)Nc1cc(F)c2c(c1)CC(F)(CNCCC1CN(c3cnc4c(n3)NC(=O)CO4)C(=O)O1)C2)N(C)C (stereo partly drawn) [Example 33, (2R)-N-[2,7-difluoro-2-[[2-[2-oxo-3-(3-oxo-4H-pyrazino[2,3-b][1,4]oxazin-6-yl)oxazolidin-5-yl]ethylamino]methyl]indan-5-yl]-2-(dimethylamino)propanamide] | 0.5 µg/mL (≈ 0.894 µM) |

same assay, conditions: strain Escherichia coli ATCC 25922; broth microdilution per CLSI M07-A10; 18-24 hours at 35±2° C.; lowest concentration for complete growth inhibition

| Structure (SMILES) | Escherichia coli growth inhibition MIC |
| --- | --- |
| C[C@H](C(=O)Nc1cc(F)c2c(c1)CC(CNCC[C@@H]1CN(c3cnc4c(n3)NC(=O)CO4)C(=O)O1)C2)N(C)C (stereo partly drawn) [Example 71, (2R)-2-(Dimethylamino)-N-[7-fluoro-2-[[2-[(5R)-2-oxo-3-(3-oxo-4H-pyrazino[2,3-b][1,4]oxazin-6-yl)oxazolidin-5-yl]ethylamino]methyl]indan-5-yl]propanamide] | 0.125 µg/mL |
